# Organism: Rattus norvegicus
# Assay: Open TG-GATES - Regimen: Single
# Type: toxicity, organism-based, Sprague-Dawley
# Parameters: regimen Single, gender Male, age 6 weeks
# Conditions: in vivo, po, route gavage; for TG / TP / gamma-GTP / ALP / AST / BUN / CRE / Ca / Cl / DBIL / GLC / IP / LDH / Na / PL / RALB / TBIL / TC / ALT: tissue Plasma; for APTT / Bas / Eos / Fbg / Hb / Ht / Lym / MCH / MCHC / MCV / Mono / PT / Plat / RBC / Ret / WBC / Neu: tissue Blood; for KIDNEY_L / KIDNEY_R / KIDNEY_TOTAL: tissue Kidney; for LIVER: tissue Liver
# [1] = 30 mg/kg, 3 h, dose level Middle
# [2] = 30 mg/kg, 6 h, dose level Middle
# [3] = 30 mg/kg, 9 h, dose level Middle
# [4] = 30 mg/kg, 24 h, dose level Middle
# [5] = 100 mg/kg, 3 h, dose level High
# [6] = 100 mg/kg, 6 h, dose level High
# [7] = 100 mg/kg, 9 h, dose level High
# [8] = 100 mg/kg, 24 h, dose level High
compound,measurement,setting,value
CC(=O)N1CCN(c2ccc(OCC3COC(Cn4ccnc4)(c4ccc(Cl)cc4Cl)O3)cc2)CC1 (stereo unspecified) [KETOCONAZOLE],TG,"10 mg/kg, 24 h, dose level Low",94.4 mg/dL
same,TP,"10 mg/kg, 24 h, dose level Low",5.5 g/dL
same,gamma-GTP,"10 mg/kg, 24 h, dose level Low",1.2 IU/L
same,TERMINAL_BW,[1],196.9 g
same,APTT,[1],21.2 s
same,Bas,[1],0%
same,Eos,[1],0.4%
same,Fbg,[1],275.6 mg/dL
same,Hb,[1],12.7 g/dL
same,Ht,[1],38.1%
same,Lym,[1],77.2%
same,MCH,[1],21.5 pg
same,MCHC,[1],33.2%
same,MCV,[1],64.6 fL
same,Mono,[1],1.6%
same,PT,[1],17.1 s
same,Plat,[1],121.6 x10_4/uL
same,RBC,[1],590.6 x10_4/ul
same,Ret,[1],8.6%
same,WBC,[1],75.8 x10_2/uL
same,KIDNEY_L,[1],0.9 g
same,KIDNEY_R,[1],0.9 g
same,KIDNEY_TOTAL,[1],1.8 g
same,LIVER,[1],9 g
same,ALP,[1],1671.8 IU/L
same,AST,[1],77 IU/L
same,BUN,[1],11.6 mg/dL
same,CRE,[1],0.2 mg/dL
same,Ca,[1],10.8 mg/dL
same,Cl,[1],105.2 meq/L
same,DBIL,[1],0 mg/dL
same,GLC,[1],188.2 mg/dL
same,IP,[1],8.6 mg/dL
same,LDH,[1],205.8 IU/L
same,Na,[1],141.2 meq/L
same,PL,[1],140.2 mg/dL
same,RALB,[1],2.9 g/dL
same,TBIL,[1],0.016 mg/dL
same,TC,[1],75.8 mg/dL
same,TG,[1],54 mg/dL
same,TP,[1],5.4 g/dL
same,gamma-GTP,[1],1.2 IU/L
same,TERMINAL_BW,[2],199.3 g
same,APTT,[2],21.8 s
same,Bas,[2],0%
same,Eos,[2],1%
same,Fbg,[2],304.4 mg/dL
same,Hb,[2],13.2 g/dL
same,Ht,[2],39.5%
same,Lym,[2],79.8%
same,MCH,[2],21.1 pg
same,MCHC,[2],33.5%
same,MCV,[2],63.1 fL
same,Mono,[2],2.2%
same,Neu,[2],15.8%
same,PT,[2],16.7 s
same,Plat,[2],126 x10_4/uL
same,RBC,[2],626.6 x10_4/ul
same,Ret,[2],7.8%
same,WBC,[2],67.8 x10_2/uL
same,KIDNEY_L,[2],0.9 g
same,KIDNEY_R,[2],0.9 g
same,KIDNEY_TOTAL,[2],1.9 g
same,LIVER,[2],8.4 g
same,ALP,[2],1604 IU/L
same,AST,[2],72.6 IU/L
same,BUN,[2],10.2 mg/dL
same,CRE,[2],0.2 mg/dL
same,Ca,[2],10.9 mg/dL
same,Cl,[2],105.6 meq/L
same,DBIL,[2],0 mg/dL
same,GLC,[2],179.4 mg/dL
same,IP,[2],9.4 mg/dL
same,LDH,[2],237.8 IU/L
same,Na,[2],142 meq/L
same,PL,[2],135 mg/dL
same,RALB,[2],3.1 g/dL
same,TBIL,[2],0.034 mg/dL
same,TC,[2],75 mg/dL
same,TG,[2],54.6 mg/dL
same,TP,[2],5.5 g/dL
same,gamma-GTP,[2],1.2 IU/L
same,TERMINAL_BW,[3],200.7 g
same,APTT,[3],21.4 s
same,Bas,[3],0%
same,Eos,[3],1%
same,Fbg,[3],287 mg/dL
same,Hb,[3],13.3 g/dL
same,Ht,[3],39.8%
same,Lym,[3],77.4%
same,MCH,[3],21.4 pg
same,MCHC,[3],33.4%
same,MCV,[3],63.9 fL
same,Mono,[3],1.4%
same,Neu,[3],19.8%
same,PT,[3],16.8 s
same,Plat,[3],127.9 x10_4/uL
same,RBC,[3],622.8 x10_4/ul
same,Ret,[3],8.5%
same,WBC,[3],52.8 x10_2/uL
same,KIDNEY_L,[3],1 g
same,KIDNEY_R,[3],1 g
same,KIDNEY_TOTAL,[3],1.9 g
same,LIVER,[3],8.3 g
same,ALP,[3],1563 IU/L
same,AST,[3],70.6 IU/L
same,BUN,[3],10.6 mg/dL
same,CRE,[3],0.2 mg/dL
same,Ca,[3],10.6 mg/dL
same,Cl,[3],105 meq/L
same,DBIL,[3],0.002 mg/dL
same,GLC,[3],176.2 mg/dL
same,IP,[3],10 mg/dL
same,LDH,[3],200.6 IU/L
same,Na,[3],141.2 meq/L
same,PL,[3],123.8 mg/dL
same,RALB,[3],3.1 g/dL
same,TBIL,[3],0.02 mg/dL
same,TC,[3],65.6 mg/dL
same,TG,[3],47 mg/dL
same,TP,[3],5.4 g/dL
same,gamma-GTP,[3],1.2 IU/L
same,TERMINAL_BW,[4],217.1 g
same,APTT,[4],20.6 s
same,Bas,[4],0%
same,Eos,[4],1%
same,Fbg,[4],320.8 mg/dL
same,Hb,[4],12.7 g/dL
same,Ht,[4],38.5%
same,Lym,[4],75.2%
same,MCH,[4],21.1 pg
same,MCHC,[4],33.1%
same,MCV,[4],64 fL
same,Mono,[4],1.6%
same,Neu,[4],20.6%
same,PT,[4],16.3 s
same,Plat,[4],121.7 x10_4/uL
same,RBC,[4],602 x10_4/ul
same,Ret,[4],7.3%
same,WBC,[4],66 x10_2/uL
same,KIDNEY_L,[4],1 g
same,KIDNEY_R,[4],1 g
same,KIDNEY_TOTAL,[4],2 g
same,LIVER,[4],10.7 g
same,ALP,[4],1798.8 IU/L
same,ALT,[4],49.4 IU/L
same,AST,[4],75 IU/L
same,BUN,[4],15.4 mg/dL
same,CRE,[4],0.2 mg/dL
same,Ca,[4],10.8 mg/dL
same,Cl,[4],106.2 meq/L
same,DBIL,[4],0 mg/dL
same,GLC,[4],179 mg/dL
same,IP,[4],7.5 mg/dL
same,LDH,[4],220 IU/L
same,Na,[4],142.4 meq/L
same,PL,[4],148.8 mg/dL
same,RALB,[4],3 g/dL
same,TBIL,[4],0.004 mg/dL
same,TC,[4],77.2 mg/dL
same,TG,[4],102.2 mg/dL
same,TP,[4],5.5 g/dL
same,gamma-GTP,[4],1.4 IU/L
same,TERMINAL_BW,[5],205.8 g
same,APTT,[5],21.1 s
same,Bas,[5],0%
same,Eos,[5],0.8%
same,Fbg,[5],280.8 mg/dL
same,Hb,[5],13 g/dL
same,Ht,[5],38.6%
same,Lym,[5],81.4%
same,MCH,[5],21.1 pg
same,MCHC,[5],33.5%
same,MCV,[5],62.9 fL
same,Mono,[5],1.8%
same,Neu,[5],15.2%
same,PT,[5],16.9 s
same,Plat,[5],125.7 x10_4/uL
same,RBC,[5],615.2 x10_4/ul
same,Ret,[5],8.6%
same,WBC,[5],103.8 x10_2/uL
same,KIDNEY_L,[5],1 g
same,KIDNEY_R,[5],1 g
same,KIDNEY_TOTAL,[5],1.9 g
same,LIVER,[5],9.5 g
same,ALP,[5],1893.6 IU/L
same,AST,[5],73.6 IU/L
same,BUN,[5],11.6 mg/dL
same,CRE,[5],0.1 mg/dL
same,Ca,[5],10.8 mg/dL
same,Cl,[5],104.6 meq/L
same,DBIL,[5],0 mg/dL
same,GLC,[5],190.8 mg/dL
same,IP,[5],9.2 mg/dL
same,LDH,[5],182.4 IU/L
same,Na,[5],140.4 meq/L
same,PL,[5],151.8 mg/dL
same,RALB,[5],2.9 g/dL
same,TBIL,[5],0.016 mg/dL
same,TC,[5],85 mg/dL
same,TG,[5],59.4 mg/dL
same,TP,[5],5.3 g/dL
same,gamma-GTP,[5],1 IU/L
same,TERMINAL_BW,[6],197.9 g
same,APTT,[6],21.5 s
same,Bas,[6],0%
same,Eos,[6],0.6%
same,Fbg,[6],290.8 mg/dL
same,Hb,[6],13.4 g/dL
same,Ht,[6],39.8%
same,Lym,[6],80.4%
same,MCH,[6],21.4 pg
same,MCV,[6],63.6 fL
same,Mono,[6],2%
same,Neu,[6],15%
same,PT,[6],16.6 s
same,Plat,[6],127.9 x10_4/uL
same,RBC,[6],625.8 x10_4/ul
same,Ret,[6],7.5%
same,WBC,[6],69 x10_2/uL
same,KIDNEY_L,[6],0.9 g
same,KIDNEY_R,[6],0.9 g
same,KIDNEY_TOTAL,[6],1.8 g
same,LIVER,[6],8.7 g
same,ALP,[6],1551.6 IU/L
same,AST,[6],68.8 IU/L
same,BUN,[6],8.8 mg/dL
same,CRE,[6],0.2 mg/dL
same,Ca,[6],10.9 mg/dL
same,Cl,[6],105.2 meq/L
same,DBIL,[6],0 mg/dL
same,GLC,[6],191.2 mg/dL
same,IP,[6],9.9 mg/dL
same,LDH,[6],257.2 IU/L
same,Na,[6],141.4 meq/L
same,PL,[6],142.8 mg/dL
same,RALB,[6],3 g/dL
same,TBIL,[6],0.02 mg/dL
same,TC,[6],74.2 mg/dL
same,TG,[6],94.2 mg/dL
same,TP,[6],5.4 g/dL
same,gamma-GTP,[6],1 IU/L
same,TERMINAL_BW,[7],199.2 g
same,APTT,[7],20.8 s
same,Bas,[7],0%
same,Eos,[7],1%
same,Fbg,[7],298 mg/dL
same,Ht,[7],38.7%
same,Lym,[7],80.6%
same,MCH,[7],21.2 pg
same,MCV,[7],62.9 fL
same,Mono,[7],1.6%
same,Neu,[7],15.8%
same,PT,[7],16.9 s
same,Plat,[7],124.7 x10_4/uL
same,RBC,[7],615.4 x10_4/ul
same,Ret,[7],8.1%
same,WBC,[7],80.7 x10_2/uL
same,KIDNEY_L,[7],0.9 g
same,KIDNEY_R,[7],0.9 g
same,KIDNEY_TOTAL,[7],1.8 g
same,LIVER,[7],8.1 g
same,ALP,[7],1393.4 IU/L
same,AST,[7],63.2 IU/L
same,BUN,[7],7.4 mg/dL
same,CRE,[7],0.2 mg/dL
same,Ca,[7],10.7 mg/dL
same,Cl,[7],106 meq/L
same,DBIL,[7],0 mg/dL
same,GLC,[7],198 mg/dL
same,IP,[7],9.3 mg/dL
same,LDH,[7],179 IU/L
same,Na,[7],142.2 meq/L
same,PL,[7],137.4 mg/dL
same,RALB,[7],2.9 g/dL
same,TBIL,[7],0.02 mg/dL
same,TC,[7],73.4 mg/dL
same,TG,[7],55.2 mg/dL
same,TP,[7],5.3 g/dL
same,gamma-GTP,[7],1.2 IU/L
same,TERMINAL_BW,[8],216.3 g
same,APTT,[8],21.5 s
same,Bas,[8],0%
same,Eos,[8],0.4%
same,Fbg,[8],304.2 mg/dL
same,Hb,[8],13.3 g/dL
same,Ht,[8],39.9%
same,Lym,[8],74.8%
same,MCH,[8],21.4 pg
same,MCHC,[8],33.2%
same,MCV,[8],64.4 fL
same,Mono,[8],2%
same,Neu,[8],21.4%
same,PT,[8],16.4 s
same,Plat,[8],127 x10_4/uL
same,RBC,[8],621 x10_4/ul
same,Ret,[8],8%
same,WBC,[8],71.7 x10_2/uL
same,KIDNEY_L,[8],1 g
same,KIDNEY_R,[8],1 g
same,KIDNEY_TOTAL,[8],2 g
same,LIVER,[8],11 g
same,ALP,[8],1882.6 IU/L
same,ALT,[8],55.8 IU/L
same,AST,[8],89.8 IU/L
same,BUN,[8],15.8 mg/dL
same,CRE,[8],0.2 mg/dL
same,Ca,[8],10.7 mg/dL
same,Cl,[8],105.4 meq/L
same,DBIL,[8],0 mg/dL
same,GLC,[8],180.4 mg/dL
same,IP,[8],8.4 mg/dL
same,LDH,[8],226.4 IU/L
same,Na,[8],142.2 meq/L
same,PL,[8],147 mg/dL
same,RALB,[8],2.9 g/dL
same,TBIL,[8],0.004 mg/dL
same,TC,[8],79.4 mg/dL
same,TG,[8],88.6 mg/dL
same,TP,[8],5.4 g/dL
same,gamma-GTP,[8],1 IU/L

# — ChEMBL document CHEMBL3885861, “Open TG-GATES”
